{
  "source": "patent US20230277669A1",
  "about": "“USES OF UROLITHINS” (Amazentis SA, priority 2022, published 2023)",
  "test_system": "CD8+ T cells",
  "experiment": "In vitro stimulation of CD3+ T cells with aCD3/aCD28 beads in presence of UA",
  "type": "cell-based, FVB mice",
  "description": "(FIG. 2A) Scheme of CD3+ T-cell activation and analysis for various timepoints. (FIG. 2B) Reduced effector molecule expression on in vitro treated cells (n=3 pooled from three independent experiments). Isolated T-cells were stimulated for 48 h at the presence of UA or DMSO in the indicated doses. Data are mean ± SD, *p < 0.05 by two-sided t-test. (FIG. 2C) Reduced effector molecule expression on in vitro treated cells (n=3 pooled from three independent experiments). Isolated T-cells were stimulated for 48 h at the presence of UA or DMSO in the indicated doses. Data are mean ± SD, *p < 0.05 by two-sided t-test. (FIG. 2D) Quantification of T memory stem cells (TSCM: CD44^-CD62L^+Sca1^hi) after 24 h, 48 h and 96 h post stimulation with aCD3/aCD28 stimulation beads as indicated in (A) (n=4 pooled from four independent experiments). Data are mean ± SD, statistical analysis was performed via two-sided t-test (*p < 0.05; **p < 0.01; n.s. not significant). (FIG. 2E) Mitochondrial membrane potential within naïve CD62L^+CD44^-CD8^+ T cells, with TMRM^lo representing cells with low mitochondrial membrane potential. Cells were stimulated for 48 h as depicted in (A). Data are mean ± SD, n=4; ***p <0.001 by two-sided t-test. Experiment was repeated twice in independent experiments. (FIG. 2F) Representative histogram and quantification of memory marker CD95 expression in CD62L^+CD44^-CD8^+ cells, 48 hours after in vitro stimulation. Data are mean ± SD; n=5; ****p < 0.0001 by two-sided t-test. Data depicts one of two independent experiments. (FIG. 2G) Analysis of TIL of UA-fed mice, treated as depicted in FIG. 1J. Percentage of TSCM within CD8+ (G; n=7), as well as TCF1 (H; n=7) PD1^hi,Tim3^hi and CTLA4hi (I-K, all n=6) in the TIL CD8+ population are shown. Data are mean ± SD, statistical analysis was performed via two-sided t-test (*p < 0.05; **p < 0.01;, ***p <0.001.). Data depicts one of two independent experiments. (FIG. 2H) The same experiment as FIG. 2G with TCF1 (n=7) in the TIL CD8+ population. (FIG. 2I) The same experiment as FIG. 2G with PD1^hi (n=6) in the TIL CD8+ population. (FIG. 2J) The same experiment as FIG. 2G with Tim3^hi (n=6) in the TIL CD8+ population. (FIG. 2K) The same experiment as FIG. 2G with CTLA4hi (n=6) in the TIL CD8+ population. (FIG. 2L) Flow cytometry readout of ex vivo cytokine release of previously isolated TIL upon re-stimulation with PMA/ionomycin. Data are mean ± SD with n=7 per group. Statistical analysis was performed by two-sided t-test (**p < 0.01). One out of two independent experiments are shown. (FIG. 2M) Flow cytometry readout of ex vivo cytokine release of previously isolated TIL upon re-stimulation with PMA/ionomycin. Data are mean ± SD with n=7 per group. Statistical analysis was performed by two-sided t-test (**p < 0.01). One out of two independent experiments are shown.\n(FIG. 4A) Scheme of CD3+ T-cell activation and analysis for various timepoints in order to investigate mitophagy induction in vitro. (FIG. 4B) Analysis of mitochondrial membrane potential within CD8+ T cells, with TMRM^lo representing cells with low mitochondrial membrane potential. Analysis was performed six hours after stimulation with aCD/aCD28 stimulation beads at the presence of the indicated treatments. N=4 per group, *p < 0.05 by Mann Whitney U test. One of two independent experiments are shown. (FIG. 4C) Representative flow histogram and quantification of lysosome formation in CD8+ cells six hours after in vitro stimulation. MFI shown relative to DMSO controls, n=4. Data are normalised mean ± SD, statistical analysis by two-sided t-test. One out of two independent experiments are shown. (FIG. 4D) Mitotracker Red staining of in vitro stimulated CD8+ cells after 24 hours of Urolithin A (UA25 n=6; UA50 n=6) or vehicle control treatment (DMSO: n=4). A representative flow histogram depicting identification of Mitotracker^hi cells is shown. […]",
  "data": [
    {"smiles": "O=c1oc2cc(O)ccc2c2ccc(O)cc12", "note": "[Urolithin A]", "values": [
      {"measurement": "number of CD44-CD62L+Sca1hi TSCM", "setting": "24 h, 48 h and 96 h post stimulation", "value": "in a dose dependent manner to a significantly increased number"},
      {"measurement": "loss of mitochondrial content per T cell subset (TSCM, TCM, TEFF)", "setting": "24 hours, 50 µM Urolithin A", "value": "deteted in all T cell subsets analyzed"},
      {"measurement": "mitochondrial content (Mitotracker Red) in CD8+ cells", "setting": "24 hours, UA25, UA50", "value": "loss of mitochondrial content in a dose-dependent manner"},
      {"measurement": "TSCM formation, stimulated vs unstimulated CD8+ cells", "setting": "48 h, aCD3/CD28 beads +-UA or unstimulated", "value": "only formed in activated T cells"},
      {"measurement": "PGC-1 expression in CD8+ cells", "setting": "48 h, prolonged UA administration in vitro", "value": "marked upregulation of PGC-1"},
      {"measurement": "CD95 expression in CD62L+CD44-CD8+ cells", "setting": "48 hours after stimulation", "value": "increased CD95 expression"},
      {"measurement": "TCF1 expression", "setting": "48 h stimulation", "value": "high expression of TCF1"},
      {"measurement": "cyclin D1 expression", "setting": "48 h stimulation", "value": "reduced cyclin D1 expression"},
      {"measurement": "differentiation into effector T cells (effector molecule expression)", "setting": "48 h stimulation", "value": "blocked differentiation into effector T cells"},
      {"measurement": "mitochondrial membrane potential (TMRM) in naive CD62L+CD44-CD8+ T cells", "setting": "48 h stimulation", "value": "reduced mitochondrial membrane potential"},
      {"measurement": "naive CD44loCD62Lhi T cells", "setting": "48 h stimulation, different doses of UA", "value": "significant increase"},
      {"measurement": "CD8+ T cell division (CTV staining)", "setting": "72 h stimulation", "value": "restricted CD8+T cell division in a dose-dependent manner"},
      {"measurement": "mitochondrial membrane potential in CD8+ T cells", "setting": "six hours after UA administration", "value": "reduction of mitochondrial membrane potential"},
      {"measurement": "lysosome formation in CD8+ cells", "setting": "six hours after stimulation", "value": "enhanced lysosome formation"}
    ]}
  ]
}
